{"source": "patent US4637902A", "about": "“Mixed anhydrides of carbamic and hydroxamic acids” (Fuji Photo Film Co., Ltd., priority 1983, dated 1987)", "assay": "Measurement of Decomposition Rate of Base Precursor (gelatin film on triacetyl cellulose, absorbance change)", "type": "physicochemical", "details": "for Half-Life Period t1/2: 140° C.; for K at 140° C. (× 10^2), first-order reaction rate constant: head multiplier × 10^2", "description": "Measurement of Decomposition Rate of Base Precursor About 400 mg of the base precursor of the present invention was dissolved in 25 ml of methanol. Separately, 400 mg of gelatin was dissolved in 5 ml of water with heating. After cooling, 5 ml of the above-described methanol solution was added thereto and the mixture well mixed. The resulting mixture solution was uniformly coated on a triacetyl cellulose support and dried to prepare samples. The absorbance of each of the samples at λ max (around 300 nm) was previously measured, then the sample was heated on a hot plate at a definite temperature. The change in absorbance versus time was plotted to calculate first-order reaction rate. Several examples of the reaction rate constants measured by the above-described method are given below.", "data": [{"smiles": "CN(C)C(=O)ONC(=O)c1ccccc1O", "note": "[Base Precursor No. (1), Salicylhydroxamic Acid, N,N-Dimethylcarbamate]", "values": [{"measurement": "Half-Life Period t1/2", "result": 10.3, "unit": "s"}, {"measurement": "K at 140° C. (× 10^2), first-order reaction rate constant", "result": 6.7}]}, {"smiles": "CCN(CC)C(=O)ONC(=O)c1ccccc1O", "note": "[Base Precursor No. (37)]", "values": [{"measurement": "Half-Life Period t1/2", "result": 18.7, "unit": "s"}, {"measurement": "K at 140° C. (× 10^2), first-order reaction rate constant", "result": 3.7}]}, {"smiles": "CCCCN(CCCC)C(=O)ONC(=O)c1ccccc1O", "note": "[Base Precursor No. (38), Salicylhydroxamic Acid N,N-Dibutylcarbamate]", "values": [{"measurement": "Half-Life Period t1/2", "result": 7.7, "unit": "s"}, {"measurement": "K at 140° C. (× 10^2), first-order reaction rate constant", "result": 9.0}]}]}
